In the NIST ThermoML archive (doi:10.1016/j.jct.2010.11.017):
Numbers after ± are expanded uncertainties.

Assay: mn = molality of the nth substance listed, in mol/kg
Conditions: 101 kPa, Liquid; for viscosity: Capillary tube (Ostwald / Ubbelohde) method; for speed of sound: Frequency=3 MHz, Linear variable-path acoustic interferometer; for mass density: Pycnometric method

N[C@@H](Cc1c[nH]cn1)C(=O)O [L-histidine] + O
Conditions	mass density [kg/m3]	speed of sound [m/s]	viscosity [mPa·s]
293.15 K, m1 = 0.0199	999.39 ± 6	1488.1 ± 10	1.014 ± 0.1
293.15 K, m1 = 0.0399	1000.54 ± 6	1491.8 ± 10	1.024 ± 0.1
293.15 K, m1 = 0.0599	1001.69 ± 6	1494.5 ± 10	1.035 ± 0.1
293.15 K, m1 = 0.0799	1002.84 ± 6	1496.5 ± 10	1.045 ± 0.1
293.15 K, m1 = 0.1	1003.99 ± 6	1497.4 ± 10	1.056 ± 0.11
293.15 K, m1 = 0.1199	1005.14 ± 6	1497.5 ± 10	1.066 ± 0.11
293.15 K, m1 = 0.14	1006.29 ± 6	1496.5 ± 10	1.077 ± 0.11
293.15 K, m1 = 0.16	1007.44 ± 6	1494.8 ± 10	1.087 ± 0.11
298.15 K, m1 = 0.0199	998.22 ± 6	1501.1 ± 10	0.9001 ± 0.09
298.15 K, m1 = 0.0399	999.37 ± 6	1504.4 ± 10	0.9083 ± 0.091
298.15 K, m1 = 0.0599	1000.52 ± 6	1506.8 ± 10	0.9164 ± 0.092
298.15 K, m1 = 0.0799	1001.68 ± 6	1508.1 ± 10	0.925 ± 0.093
298.15 K, m1 = 0.1	1002.83 ± 6	1508.6 ± 10	0.933 ± 0.094
298.15 K, m1 = 0.1199	1003.98 ± 6	1507.9 ± 10	0.9411 ± 0.094
298.15 K, m1 = 0.14	1005.13 ± 6	1506.5 ± 10	0.95 ± 0.095
298.15 K, m1 = 0.16	1006.28 ± 6	1504.2 ± 10	0.9583 ± 0.096
303.15 K, m1 = 0.0199	996.83 ± 6	1512.3 ± 10	0.8052 ± 0.081
303.15 K, m1 = 0.0399	997.99 ± 6	1515.1 ± 10	0.8119 ± 0.081
303.15 K, m1 = 0.0599	999.14 ± 6	1517 ± 10	0.8187 ± 0.082
303.15 K, m1 = 0.0799	1000.3 ± 6	1517.7 ± 10	0.8256 ± 0.083
303.15 K, m1 = 0.1	1001.46 ± 6	1518 ± 10	0.8318 ± 0.083
303.15 K, m1 = 0.1199	1002.61 ± 6	1516.4 ± 10	0.8383 ± 0.084
303.15 K, m1 = 0.14	1003.76 ± 6	1514.2 ± 10	0.8451 ± 0.085
303.15 K, m1 = 0.16	1004.91 ± 6	1511.5 ± 10	0.8513 ± 0.085
308.15 K, m1 = 0.0199	995.23 ± 6	1523.3 ± 10	0.7255 ± 0.073
308.15 K, m1 = 0.0399	996.39 ± 6	1525.7 ± 10	0.7309 ± 0.073
308.15 K, m1 = 0.0599	997.55 ± 6	1527.1 ± 10	0.7362 ± 0.074
308.15 K, m1 = 0.0799	998.71 ± 6	1527.6 ± 10	0.7415 ± 0.074
308.15 K, m1 = 0.1	999.87 ± 6	1527.2 ± 10	0.7464 ± 0.075
308.15 K, m1 = 0.1199	1001.02 ± 6	1525.5 ± 10	0.7515 ± 0.075
308.15 K, m1 = 0.14	1002.19 ± 6	1522.8 ± 10	0.7568 ± 0.076
308.15 K, m1 = 0.16	1003.34 ± 6	1519.8 ± 10	0.762 ± 0.076
313.15 K, m1 = 0.0199	993.41 ± 6	1529.9 ± 10	0.6581 ± 0.066
313.15 K, m1 = 0.0399	994.58 ± 6	1531.9 ± 10	0.6623 ± 0.066
313.15 K, m1 = 0.0599	995.74 ± 6	1532.8 ± 10	0.6665 ± 0.067
313.15 K, m1 = 0.0799	996.91 ± 6	1533 ± 10	0.6705 ± 0.067
313.15 K, m1 = 0.1	998.08 ± 6	1532.2 ± 10	0.6745 ± 0.068
313.15 K, m1 = 0.1199	999.23 ± 6	1530.3 ± 10	0.6788 ± 0.068
313.15 K, m1 = 0.14	1000.4 ± 6	1527.3 ± 10	0.683 ± 0.068
313.15 K, m1 = 0.16	1001.56 ± 6	1523.7 ± 10	0.6869 ± 0.069
318.15 K, m1 = 0.0199	991.41 ± 6	1535.7 ± 10	0.6018 ± 0.06
318.15 K, m1 = 0.0399	992.58 ± 6	1537.3 ± 10	0.605 ± 0.061
318.15 K, m1 = 0.0599	993.75 ± 6	1538 ± 10	0.6082 ± 0.061
318.15 K, m1 = 0.0799	994.92 ± 6	1537.6 ± 10	0.6114 ± 0.061
318.15 K, m1 = 0.1	996.1 ± 6	1536.3 ± 10	0.6148 ± 0.062
318.15 K, m1 = 0.1199	997.26 ± 6	1534.1 ± 10	0.6175 ± 0.062
318.15 K, m1 = 0.14	998.44 ± 6	1530.5 ± 10	0.6208 ± 0.062
318.15 K, m1 = 0.16	999.6 ± 6	1526.5 ± 10	0.6238 ± 0.062
